Data set [1] is described as follows: hygroscopicity / moisture uptake at 95% relative humidity by Dynamic Vapour Sorption (DVS). It is filed as physicochemical. The conditions noted are these: for % moisture uptake, 30 min / % moisture uptake, 70 min / % moisture uptake, 3 hours / % moisture uptake, 6 hours: DVS; for moisture uptake equilibrium reached or not: at the last time point (6 hours; 30 min for succinate). The method, then:
The following experiment was carried out to determine moisture sorption/desorption profiles of metformin (2:1) fumarate salt and metformin (2:1) succinate salt compared to the moisture uptake properties of metformin hydrochloride salt.
The hygroscopicity of metformin salts was assessed by Dynamic Vapour Sorption (DVS), a means of rapidly assessing sample moisture uptake properties. […] […] The weight increase of sample at each condition is recorded until a defined minimal rate of mass change is reached or a specified time period for equilibrium exceeded.

Data set [2] can be described thus: compaction susceptibility (tendency of the salt to compact under its own weight). It is filed as physicochemical.
[3] abbreviates: 95% relative humidity/25° C., hydrochloride.

Counter-ions that a name gives are not always drawn. Like-named read-outs stand apart in the source and are kept apart here.

Turning to `CN(C)C(=N)N=C(N)N` [metformin (2:1) fumarate], the “moisture content after 6 hours (summary)” value in data set [1] (95% relative humidity at 25° C.) turned out to be 6.6%. In data set [1] (95% relative humidity/25° C.), the “% moisture uptake, 30 min” value is given as 1.0%; the “% moisture uptake, 70 min” value was 2.0%; the “% moisture uptake, 3 hours” value was found to be 4.1%; the “hygroscopicity, moisture uptake at 6 hours” value (“hygroscopicity … at 6 hours” below) was “less than 7 % moisture uptake”. Further, in data set [1] (95% relative humidity/25° C.), the “% moisture uptake, 6 hours” value was 6.6%. Moreover, the compaction susceptibility entry in data set [2] is “low compaction susceptibility”.
As for `CN(C)C(=N)NC(=N)N` [metformin (2:1) succinate], the “equilibrium moisture content after 30 minutes (summary)” value in data set [1] (95% relative humidity at 25° C., 30 minutes) worked out at 0.27%. In data set [1] (95% relative humidity/25° C.), the “% moisture uptake, 30 min” value amounted to 0.27%; the “hygroscopicity … at 6 hours” value is given as “less than 7 % moisture uptake”; the “moisture uptake equilibrium reached or not” value was “reach equilibrium”. Also, in data set [1] (95% relative humidity/25° C., 30 minutes), the “hygroscopicity, moisture uptake at 30 minutes” value is reported as “less than 1 % moisture uptake”. In data set [2], the compaction susceptibility entry was “low compaction susceptibility”.
In the case of `CN(C)C(=N)N=C(N)N` [metformin hydrochloride, reference compound], the “moisture content after 6 hours (summary)” value in data set [1] (95% relative humidity at 25° C., hydrochloride) is on record as 20%. Also, in data set [1] (setting [3]), the “% moisture uptake, 30 min” value is 1.2%; the “% moisture uptake, 70 min” value is reported as 3.3%; the “% moisture uptake, 3 hours” value came to 10.0%; the “% moisture uptake, 6 hours” value is 20.1%. For the same compound, the “hygroscopicity … at 6 hours” value in data set [1] (setting [3]) is “greater than 20 % moisture uptake”. In addition, the “moisture uptake equilibrium reached or not” value in data set [1] (95% relative humidity/25° C.) is recorded as “did not reach equilibrium”. The “moisture absorbed compared to the metformin (2:1) fumarate and succinate salts” value in data set [1] (vs metformin (2:1) fumarate and succinate salts, 95% relative humidity) was “substantially greater amounts of moisture”. The compaction susceptibility entry in data set [2] (hydrochloride) is on record as “high compaction susceptibility”.

The values are drawn from US6031004A, “Salts of metformin and method” (Bristol-Myers Squibb Company, priority 1999, dated 2000).
